Laboratory results reported in PMC10443802, “Targeting a xenobiotic transporter to ameliorate vincristine-induced sensory neuropathy” (JCI Insight, 2023).
“And” between values parts separate entries of the source, which are not always exact repeats. Equal values may be shown once.

Assays:
mOATP1B2 = target: T1, mOATP1B2 (Mus musculus, UniProt Q9JJL3); assay: Inhibition of vincristine uptake in HEK293 cells overexpressing mOATP1B2; format: cell-based; details: HEK293 mOATP1B2; inhibitor 15 min pre-treatment
T1 sequence (Q9JJL3 1-689): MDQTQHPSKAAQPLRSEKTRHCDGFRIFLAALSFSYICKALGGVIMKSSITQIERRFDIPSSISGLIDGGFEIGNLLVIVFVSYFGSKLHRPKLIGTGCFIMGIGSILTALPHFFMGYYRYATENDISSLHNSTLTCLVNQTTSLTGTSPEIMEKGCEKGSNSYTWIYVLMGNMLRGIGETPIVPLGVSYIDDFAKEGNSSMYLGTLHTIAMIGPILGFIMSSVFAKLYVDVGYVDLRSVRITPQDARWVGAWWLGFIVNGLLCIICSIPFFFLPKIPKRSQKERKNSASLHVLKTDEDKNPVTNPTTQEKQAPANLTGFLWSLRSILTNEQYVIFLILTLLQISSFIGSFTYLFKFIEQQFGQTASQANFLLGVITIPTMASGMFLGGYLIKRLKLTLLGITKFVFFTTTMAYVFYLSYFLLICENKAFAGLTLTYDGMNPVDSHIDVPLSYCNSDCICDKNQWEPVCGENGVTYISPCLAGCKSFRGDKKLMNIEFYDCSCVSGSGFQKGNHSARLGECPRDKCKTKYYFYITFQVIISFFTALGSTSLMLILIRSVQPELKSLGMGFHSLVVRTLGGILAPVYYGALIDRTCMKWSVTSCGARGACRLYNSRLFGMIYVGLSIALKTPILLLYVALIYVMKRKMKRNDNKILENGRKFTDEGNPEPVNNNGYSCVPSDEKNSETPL

hASBT = hASBT (Homo sapiens, UniProt Q12908); assay: Vincristine uptake screen, HeLa cells overexpressing hASBT; format: in vitro ADME
Chain of hASBT (Q12908 whole entry): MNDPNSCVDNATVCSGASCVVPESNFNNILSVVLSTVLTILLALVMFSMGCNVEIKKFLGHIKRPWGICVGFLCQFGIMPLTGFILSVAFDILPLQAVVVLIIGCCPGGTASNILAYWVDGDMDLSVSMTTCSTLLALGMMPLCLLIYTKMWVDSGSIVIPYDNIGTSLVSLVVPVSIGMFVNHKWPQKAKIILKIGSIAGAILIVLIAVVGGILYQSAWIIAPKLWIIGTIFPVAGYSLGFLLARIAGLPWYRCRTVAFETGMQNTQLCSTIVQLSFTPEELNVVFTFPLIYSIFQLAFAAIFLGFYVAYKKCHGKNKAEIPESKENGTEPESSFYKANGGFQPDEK
Protocol: (§1) Relative uptake is expressed as percentage change compared with empty vector controls (n = 4–14 per group). […] Human OATP1B1 and OATP1B3 transporter–overexpressed cells were used as positive controls; empty vector controls were used as the negative control. […] Mechanical allodynia (C), thermal hyperalgesia (D), and sciatic nerve maximal action potential amplitudes (E) are expressed as percentage change relative to baseline values (n = 6–8 per group). Statistical analysis was performed using a 2-way ANOVA with Bonferroni’s post hoc test. **P < 0.01, ***P < 0.001, ****P < 0.0001, compared with baseline values. […] Data are shown as mean ± SEM. […]
(§2) transfected with transporters of interest, including hOAT1, hOAT3, hOAT4, hOATP1A2, hOATP3A1, hOATP4A1, hOATP5A1, hOATP1C1, hOATP1B1, hOATP1B3, hOATP2B1, hOCT1, hOCT2, hOCTN1, hOCTN2, hASBT, hNTCP, hNPT1, hMATE1, hOSTα/β, hPEPT1, hPEPT2, rOatp1a1, rOatp1a4, rOatp1a5, rOatp1b2, rNtcp, rAsbt, rOat1, and rOct1. Cells were transfected with expression plasmid or vector control lacking any insert using Lipofectin reagent (Invitrogen). […] The cellular radioactivity was quantified by liquid scintillation counting as described above. […]
(§3) Samples were analyzed using real-time quantitative PCR and Taqman Probes (Applied Biosystems). The relative gene expression was determined using the ΔΔCt method, and normalized to the mouse or human housekeeping gene, GAPDH. […]

hNPT1 = hNPT1 (Homo sapiens, UniProt Q14916); assay: Vincristine uptake screen, HeLa cells overexpressing hNPT1; format: in vitro ADME
Chain of hNPT1 (Q14916 whole entry): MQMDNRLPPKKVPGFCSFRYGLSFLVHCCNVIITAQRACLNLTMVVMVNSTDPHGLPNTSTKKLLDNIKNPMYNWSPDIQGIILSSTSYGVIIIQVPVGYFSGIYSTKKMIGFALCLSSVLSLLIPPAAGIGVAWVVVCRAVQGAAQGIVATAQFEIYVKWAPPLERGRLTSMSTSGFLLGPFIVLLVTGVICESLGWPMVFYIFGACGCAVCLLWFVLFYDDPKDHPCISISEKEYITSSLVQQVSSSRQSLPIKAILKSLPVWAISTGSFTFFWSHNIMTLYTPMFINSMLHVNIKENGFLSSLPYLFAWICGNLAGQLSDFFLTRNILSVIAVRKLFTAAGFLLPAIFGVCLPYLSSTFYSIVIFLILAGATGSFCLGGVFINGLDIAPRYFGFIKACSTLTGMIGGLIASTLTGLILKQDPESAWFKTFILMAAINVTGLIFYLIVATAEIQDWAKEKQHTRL
Protocol: as §1
as §2, with “(Invitrogen). Sixteen hours thereafter, cells were washed with transport media (OPTIMEM, Invitrogen) and treated with radiolabeled drug.” for “(Invitrogen).”

HL-60 = assay: Cytotoxicity of vincristine with or without nilotinib, MTT assay, HL-60; format: cell-based, human; details: individual replicates
mice = assay: Gross motor performance, automated elevated ladder test; format: in vivo, mouse
hOATP1C1 = hOATP1C1 (Homo sapiens, UniProt Q9NYB5); assay: Substrate uptake in HEK293 cells overexpressing hOATP1C1; details: HEK293 OATP1C1
Chain of hOATP1C1 (Q9NYB5 whole entry): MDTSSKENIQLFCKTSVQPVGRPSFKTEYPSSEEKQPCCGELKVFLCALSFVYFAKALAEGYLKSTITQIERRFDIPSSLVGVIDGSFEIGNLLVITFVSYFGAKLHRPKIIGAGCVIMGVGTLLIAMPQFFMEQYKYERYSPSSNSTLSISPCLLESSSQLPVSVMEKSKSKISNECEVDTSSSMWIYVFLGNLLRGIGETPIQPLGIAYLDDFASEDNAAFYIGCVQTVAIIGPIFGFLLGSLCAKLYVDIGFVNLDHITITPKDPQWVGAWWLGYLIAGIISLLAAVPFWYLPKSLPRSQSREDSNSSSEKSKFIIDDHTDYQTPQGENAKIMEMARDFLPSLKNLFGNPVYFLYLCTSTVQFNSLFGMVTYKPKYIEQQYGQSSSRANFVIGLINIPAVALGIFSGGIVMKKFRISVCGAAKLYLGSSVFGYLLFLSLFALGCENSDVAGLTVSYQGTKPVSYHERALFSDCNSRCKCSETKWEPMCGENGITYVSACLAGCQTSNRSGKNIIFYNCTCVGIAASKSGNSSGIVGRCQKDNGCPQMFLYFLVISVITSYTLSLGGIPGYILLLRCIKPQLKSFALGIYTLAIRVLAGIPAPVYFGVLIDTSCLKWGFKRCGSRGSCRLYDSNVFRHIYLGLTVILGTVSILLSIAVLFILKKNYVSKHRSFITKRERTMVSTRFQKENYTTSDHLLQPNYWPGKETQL
Source text: transfected with transporters of interest, including hOAT1, hOAT3, hOAT4, hOATP1A2, hOATP3A1, hOATP4A1, hOATP5A1, hOATP1C1, hOATP1B1, hOATP1B3, hOATP2B1, hOCT1, hOCT2, hOCTN1, hOCTN2, hASBT, hNTCP, hNPT1, hMATE1, hOSTα/β, hPEPT1, hPEPT2, rOatp1a1, rOatp1a4, rOatp1a5, rOatp1b2, rNtcp, rAsbt, rOat1, and rOct1. Cells were transfected with expression plasmid or vector control lacking any insert using Lipofectin reagent (Invitrogen). Sixteen hours thereafter, cells were washed with transport media (OPTIMEM, Invitrogen) and treated with radiolabeled drug. At various time intervals, cells were washed three times with ice-cold PBS and then lysed with 1% sodium dodecyl sulfate. The cellular radioactivity was quantified by liquid scintillation counting as described above. Similar analyses were performed in HEK293 cells transfected with hOATP1A2, hOATP1C1, mMATE1, and hMATE1, with cells seeded in poly lysine pre-coated 12-well plates. For hOATP1A2 and hOATP1C1, transient transfections were performed with either an empty vector, OATP1A2, or OATP1C1 using Lipofectamine 2000 according to the manufacturers protocol (Invitrogen). At 48 h post transfection, […]
as §3

hMATE1 = hMATE1 (Homo sapiens, UniProt Q96FL8); assay: Substrate uptake in HEK293 cells overexpressing hMATE1; details: HEK293 human MATE1
Chain of hMATE1 (Q96FL8 whole entry): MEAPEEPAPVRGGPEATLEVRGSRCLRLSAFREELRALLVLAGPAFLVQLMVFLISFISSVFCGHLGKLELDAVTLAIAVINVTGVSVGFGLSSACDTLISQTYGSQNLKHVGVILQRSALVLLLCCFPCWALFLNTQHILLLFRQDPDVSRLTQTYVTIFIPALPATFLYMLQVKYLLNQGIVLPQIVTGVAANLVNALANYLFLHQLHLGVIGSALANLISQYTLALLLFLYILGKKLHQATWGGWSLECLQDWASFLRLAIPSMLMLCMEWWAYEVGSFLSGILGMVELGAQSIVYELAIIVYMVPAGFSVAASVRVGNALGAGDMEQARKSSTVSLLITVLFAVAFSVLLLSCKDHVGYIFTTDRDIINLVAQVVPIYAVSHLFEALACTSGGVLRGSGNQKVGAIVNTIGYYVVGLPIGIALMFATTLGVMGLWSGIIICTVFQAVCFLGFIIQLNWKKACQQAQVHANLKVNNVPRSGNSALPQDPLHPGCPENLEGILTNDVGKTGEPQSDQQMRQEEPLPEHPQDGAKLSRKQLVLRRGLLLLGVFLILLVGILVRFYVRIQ
Protocol: on OATP1B1, OATP1B3, or OATP1B2 function was evaluated using EβG (Axxora LLC) as the

SMILES	Vincristine uptake (% of vehicle) (mOATP1B2)	Vincristine uptake (% of vector control) (hASBT)	Vincristine uptake (% of vector control) (hNPT1)	IC50 (HL-60; HL-60 cells, vincristine alone)	IC50 (HL-60; Homo sapiens, HL-60, HL-60 cells, vincristine + 1μM Nilotinib) [nM]	Gross motor performance (automated ladder and open field tests) (mice; WT mice or OATP1B2-/- mice, single i.p. dose 1 mg/kg)	Number of missed steps (mice; Wild-type mice, Day 2)	Contribution of transporter to cellular uptake of vincristine (hOATP1C1)	Contribution of transporter to cellular uptake of vincristine (hMATE1)
Cc1cn(-c2cc(NC(=O)c3ccc(C)c(Nc4nccc(-c5cccnc5)n4)c3)cc(C(F)(F)F)c2)cn1 [Nilotinib, nilotinib]	73.0702 % of vehicle and 58.7366 % of vehicle and 55.2034 % of vehicle and 63.6149 % of vehicle and 58.7604 % of vehicle and 51.7599 % of vehicle	–	–	–	–	–	–	–	–
CC[C@]1(O)C[C@H]2CN(CCc3c([nH]c4ccccc34)[C@@](C(=O)OC)(c3cc4c(cc3OC)N(C=O)[C@H]3[C@@](O)(C(=O)OC)[C@H](OC(C)=O)[C@]5(CC)C=CCN6CC[C@]43[C@@H]65)C2)C1 [Vincristine, vincristine]	–	91.00 % of vector control and 82.00 % of vector control and 85.00 % of vector control and 81.00 % of vector control and 114.00 % of vector control and 83.00 % of vector control and 69.00 % of vector control and 101.00 % of vector control	120.00 % of vector control and 91.00 % of vector control and 99.00 % of vector control and 72.00 % of vector control and 100.00 % of vector control and 104.00 % of vector control and 113.00 % of vector control	9.13 nM and 3.89 nM and 6.71 nM and 7.31 nM and 6.48 nM and 6.07 nM and 6.3 nM and 8.17 nM and 5.71 nM	6.98	did not affect gross motor performance	7.667 and 9.667 and 8.333 and 5.667 and 8 and 10.6667 and 9.333	do not appreciably contribute to the cellular uptake of vincristine	do not appreciably contribute to the cellular uptake of vincristine
